One assay concerns the target human TLR7 (Homo sapiens (Human), UniProt Q9NYK1). Briefly: TLR7 inhibition reporter assay (HEK-Blue cells, SEAP reporter, gardiquimod stimulation). Type of assay: cell-based.
Another assay concerns the target human TLR9 (Homo sapiens (Human), UniProt Q9NR96). Briefly: TLR9 inhibition reporter assay (HEK-Blue cells, SEAP reporter, ODN2006 stimulation).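 Further: compounds tested over 0.05 nM to 50 µM, 22 h incubation, inhibition taken as SEAP signal drop from agonist plus DMSO wells toward a known inhibitor control.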
Another assay concerns the target human TLR8 (Homo sapiens (Human), UniProt Q9NR97). Briefly: TLR8 inhibition reporter assay (HEK-Blue cells, SEAP reporter, R848 stimulation). (Reporter assays use an easily measured gene product as a stand-in for the process of interest.);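 further: compounds tested from 0.05 nM to 50 µM, 22 h at 37 °C, SEAP measured with HEK-Blue Detection, inhibition relative to agonist plus DMSO versus a known inhibitor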
[1] abbreviates: HEK-Blue cells overexpressing human TLR7, gardiquimod 7.5 μM.
Where [2] appears, read: read-out: TLR9 IC50, HEK-Blue cells overexpressing human TLR9, ODN2006 5 nM.
Setting [3] is: read-out: TLR8 IC50, HEK-Blue cells overexpressing human TLR8, R848 15.9 μM.

Like-named read-outs stand apart in the source and are kept apart here.

Chain of human TLR9 (Q9NR96 26-1032): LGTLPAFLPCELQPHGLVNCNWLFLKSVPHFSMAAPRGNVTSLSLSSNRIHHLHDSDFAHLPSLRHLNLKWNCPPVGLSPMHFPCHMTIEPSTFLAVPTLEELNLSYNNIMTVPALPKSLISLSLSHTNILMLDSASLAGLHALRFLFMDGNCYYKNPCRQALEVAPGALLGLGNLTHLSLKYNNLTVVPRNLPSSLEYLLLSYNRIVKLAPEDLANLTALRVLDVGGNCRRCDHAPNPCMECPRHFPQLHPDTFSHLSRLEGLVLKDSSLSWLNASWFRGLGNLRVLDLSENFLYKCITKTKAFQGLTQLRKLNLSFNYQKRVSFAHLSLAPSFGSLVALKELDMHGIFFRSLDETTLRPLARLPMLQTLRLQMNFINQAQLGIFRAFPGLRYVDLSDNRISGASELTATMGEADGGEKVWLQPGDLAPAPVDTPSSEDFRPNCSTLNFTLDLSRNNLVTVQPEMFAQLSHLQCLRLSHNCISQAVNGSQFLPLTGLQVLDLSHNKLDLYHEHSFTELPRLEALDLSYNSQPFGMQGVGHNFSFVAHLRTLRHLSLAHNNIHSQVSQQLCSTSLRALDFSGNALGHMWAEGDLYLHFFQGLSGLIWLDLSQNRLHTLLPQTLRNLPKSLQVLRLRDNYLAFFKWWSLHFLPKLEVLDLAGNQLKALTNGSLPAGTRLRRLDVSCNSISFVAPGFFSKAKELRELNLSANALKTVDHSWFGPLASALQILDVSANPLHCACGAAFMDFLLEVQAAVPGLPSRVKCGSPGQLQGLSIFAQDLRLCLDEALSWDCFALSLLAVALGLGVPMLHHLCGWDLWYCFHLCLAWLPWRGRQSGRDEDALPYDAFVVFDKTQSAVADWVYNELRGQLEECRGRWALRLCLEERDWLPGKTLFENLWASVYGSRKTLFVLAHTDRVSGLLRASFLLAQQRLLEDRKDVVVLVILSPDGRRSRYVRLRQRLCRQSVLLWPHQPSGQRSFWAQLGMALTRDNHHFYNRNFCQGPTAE
Chain of human TLR7 (Q9NYK1 27-1049): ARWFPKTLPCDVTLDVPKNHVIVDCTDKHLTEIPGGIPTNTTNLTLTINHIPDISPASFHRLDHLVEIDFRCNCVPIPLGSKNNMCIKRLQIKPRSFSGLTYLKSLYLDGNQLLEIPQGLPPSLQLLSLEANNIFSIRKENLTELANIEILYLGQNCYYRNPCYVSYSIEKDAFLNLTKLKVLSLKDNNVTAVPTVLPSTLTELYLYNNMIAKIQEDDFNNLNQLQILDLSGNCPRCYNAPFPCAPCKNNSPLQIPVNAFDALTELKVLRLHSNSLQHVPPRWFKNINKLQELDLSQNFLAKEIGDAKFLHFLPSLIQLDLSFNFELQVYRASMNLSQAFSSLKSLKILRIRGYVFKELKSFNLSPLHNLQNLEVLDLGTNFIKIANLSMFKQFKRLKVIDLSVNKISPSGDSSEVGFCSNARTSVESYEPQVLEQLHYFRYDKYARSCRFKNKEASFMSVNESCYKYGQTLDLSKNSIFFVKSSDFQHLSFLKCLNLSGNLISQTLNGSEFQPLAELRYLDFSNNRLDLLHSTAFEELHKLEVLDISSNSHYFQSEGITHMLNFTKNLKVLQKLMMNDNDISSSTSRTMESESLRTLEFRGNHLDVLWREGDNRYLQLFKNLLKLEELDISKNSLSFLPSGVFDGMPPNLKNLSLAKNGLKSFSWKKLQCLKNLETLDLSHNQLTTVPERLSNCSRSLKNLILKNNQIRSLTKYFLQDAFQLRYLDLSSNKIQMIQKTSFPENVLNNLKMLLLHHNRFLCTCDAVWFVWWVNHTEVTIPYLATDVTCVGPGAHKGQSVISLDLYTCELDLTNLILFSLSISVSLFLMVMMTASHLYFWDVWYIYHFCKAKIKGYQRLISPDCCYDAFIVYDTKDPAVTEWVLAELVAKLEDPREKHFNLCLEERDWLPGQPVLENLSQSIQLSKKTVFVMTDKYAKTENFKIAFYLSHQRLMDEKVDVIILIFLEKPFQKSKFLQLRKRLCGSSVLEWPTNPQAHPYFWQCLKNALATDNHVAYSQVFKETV
Chain of human TLR8 (Q9NR97 27-1041): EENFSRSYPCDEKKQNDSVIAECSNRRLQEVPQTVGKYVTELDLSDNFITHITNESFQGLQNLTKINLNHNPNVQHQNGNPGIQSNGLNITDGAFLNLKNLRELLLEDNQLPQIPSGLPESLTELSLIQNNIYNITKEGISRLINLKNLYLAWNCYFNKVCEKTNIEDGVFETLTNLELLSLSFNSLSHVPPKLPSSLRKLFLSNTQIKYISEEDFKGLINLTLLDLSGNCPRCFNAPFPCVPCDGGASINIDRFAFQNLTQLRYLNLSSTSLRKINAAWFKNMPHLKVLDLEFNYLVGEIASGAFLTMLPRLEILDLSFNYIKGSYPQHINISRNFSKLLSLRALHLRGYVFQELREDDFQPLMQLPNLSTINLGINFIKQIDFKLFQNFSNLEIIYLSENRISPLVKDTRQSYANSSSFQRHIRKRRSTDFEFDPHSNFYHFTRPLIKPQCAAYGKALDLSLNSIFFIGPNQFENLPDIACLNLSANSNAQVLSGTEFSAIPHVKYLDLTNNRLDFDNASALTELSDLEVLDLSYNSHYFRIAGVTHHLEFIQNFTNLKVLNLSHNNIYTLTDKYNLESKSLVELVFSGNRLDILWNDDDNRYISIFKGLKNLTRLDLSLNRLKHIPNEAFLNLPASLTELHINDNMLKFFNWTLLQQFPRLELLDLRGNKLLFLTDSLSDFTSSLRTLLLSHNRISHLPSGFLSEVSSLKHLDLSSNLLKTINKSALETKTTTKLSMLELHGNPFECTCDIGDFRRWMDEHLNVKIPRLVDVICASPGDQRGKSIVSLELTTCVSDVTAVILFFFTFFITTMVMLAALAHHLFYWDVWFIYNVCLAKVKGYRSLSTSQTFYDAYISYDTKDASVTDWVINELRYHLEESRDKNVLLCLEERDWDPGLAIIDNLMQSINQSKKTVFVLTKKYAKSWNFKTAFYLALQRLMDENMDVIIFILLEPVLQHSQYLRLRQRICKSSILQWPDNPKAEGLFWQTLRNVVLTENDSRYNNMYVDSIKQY

Regarding `Cc1cc(-c2[nH]c3ccc(C4CCNCC4)cc3c2C2CC2)ccn1` [Example 88, 3-cyclopropyl-2-(2-methylpyridin-4-yl)-5-(piperidin-4-yl)-1H-indole], the concentration for half-maximal inhibition (IC50) on human TLR7 (setting [1]) was 11.9 nM; on human TLR9 (setting [2]), 71 nM; on human TLR8 (setting [3]), 7 nM.
The corresponding values for `Cc1cc(-c2[nH]c3ccc(C4CCN(CC5COC5)CC4)cc3c2C(C)C)cc(C)n1` [Example 333, 2-(2,6-dimethylpyridin-4-yl)-3-isopropyl-5-(1-(oxetan-3-ylmethyl)piperidin-4-yl)-1H-indole] are 0.8 nM, 364 nM and 1.4 nM.
For the compound `Cc1cc(-c2[nH]c3ccc(C4CCN(C(=O)CNCC(C)(C)O)CC4)cc3c2C(C)C)cc(C)n1` [Example 375, 1-(4-(2-(2,6-dimethylpyridin-4-yl)-3-isopropyl-1H-indol-5-yl)piperidin-1-yl)-2-((2-hydroxy-2-methylpropyl)amino)ethan-1-one], the values for the IC50 against human TLR7 (setting [1]), on human TLR9 (setting [2]) and on human TLR8 (setting [3]) were 13.1 nM, 1780 nM and 80.6 nM, respectively.
Turning to `Cc1cc(-c2[nH]c3ccc(C4CCN(C(=O)c5cccn(C6CC6)c5=O)CC4)cc3c2C(C)C)cc(C)n1` [Example 123, 1-cyclopropyl-3-(4-(2-(2,6-dimethylpyridin-4-yl)-3-isopropyl-1H-indol-5-yl)piperidine-1-carbonyl)pyridin-2(1H)-one], the IC50 against human TLR7 (setting [1]) stood at 20.5 nM; on human TLR9 (setting [2]) it was 36600 nM; at human TLR8 (setting [3]), 114 nM.
As for `Cc1cc(-c2[nH]c3ccc(C4CCN(C(=O)CN(C)C5CCS(=O)(=O)C5)CC4)cc3c2C(C)C)cc(C)n1` (stereo not drawn) [Example 147, 1-(4-(2-(2,6-dimethylpyridin-4-yl)-3-isopropyl-1H-indol-5-yl)piperidin-1-yl)-2-((1,1-dioxidotetrahydrothiophen-3-yl)(methyl)amino)ethan-1-one], the IC50 was determined as 6.7 nM at human TLR7 (setting [1]), 3840 nM on human TLR9 (setting [2]) and 42.3 nM at human TLR8 (setting [3]).
With `CN[C@@H](C)C(=O)N1CCC(c2ccc3[nH]c(-c4cc(C)nc(C)c4)c(C(C)C)c3c2)CC1` [Example 191, (S)-1-(4-(2-(2,6-dimethylpyridin-4-yl)-3-isopropyl-1H-indol-5-yl)piperidin-1-yl)-2-(methylamino)propan-1-one], the concentration for half-maximal inhibition (IC50) was 3.5 nM on human TLR7 (setting [1]), 317 nM at human TLR9 (setting [2]) and 14.4 nM on human TLR8 (setting [3]).
On the same counts, the results for `CC(C)c1c(-c2ccnc(C(=O)NCC(F)(F)F)c2)[nH]c2ccc(C3CCNCC3)cc12` [Example 476, 4-(3-isopropyl-5-(piperidin-4-yl)-1H-indol-2-yl)-N-(2,2,2-trifluoroethyl) picolinamide] are 6070 nM, 3260 nM and 1040 nM.
On the same counts, the results for `Cc1cc(-c2[nH]c3ccc(C4CCN(C(=O)CN5C[C@H](C)C[C@@H]5CO)CC4)cc3c2C(C)C)cc(C)n1` [Example 410, 1-(4-(2-(2,6-dimethylpyridin-4-yl)-3-isopropyl-1H-indol-5-yl)piperidin-1-yl)-2-((2R,4R)-2-(hydroxymethyl)-4-methylpyrrolidin-1-yl)ethan-1-one] are 4.5 nM, 481 nM and 27 nM.
On the same counts, the results for `Cc1cc(-c2[nH]c3ccc(C4CCN(CC(=O)N5CCCC(O)C5)CC4)cc3c2C(C)C)cc(C)n1` (stereo not drawn) [Example 277, 2-(4-(2-(2,6-dimethylpyridin-4-yl)-3-isopropyl-1H-indol-5-yl)piperidin-1-yl)-1-(3-hydroxypiperidin-1-yl)ethan-1-one] are 2 nM, 201 nM and 6.6 nM.
For the compound `Cc1cc(-c2[nH]c3ccc(C4CCN(CCCN(C)C)CC4)cc3c2C(C)C)cc(C)n1` [Example 674, 3-(4-(2-(2,6-dimethylpyridin-4-yl)-3-isopropyl-1H-indol-5-yl)piperidin-1-yl)-N,N-dimethylpropan-1-amine], the IC50 on human TLR7 (setting [1]) is 0.8 nM; at human TLR9 (setting [2]) it was 156 nM; at human TLR8 (setting [3]), 2.8 nM.
The corresponding values for `Cc1cc(-c2[nH]c3ccc(C4CCN(Cc5nnn[nH]5)CC4)cc3c2C(C)C)c(C)cn1` [Example 695, 5-(1-((1H-tetrazol-5-yl)methyl)piperidin-4-yl)-2-(2,5-dimethylpyridin-4-yl)-3-isopropyl-1H-indole] are 1310 nM, more than 50000 nM and 111 nM.
Take `CNCCN1CCC(c2ccc3[nH]c(-c4cc(Cl)ncc4OC)c(C)c3c2)CC1` [Example 757, 2-(4-(2-(2-chloro-5-methoxypyridin-4-yl)-3-methyl-1H-indol-5-yl)piperidin-1-yl)-N-methylethan-1-amine]: the results for the IC50 against human TLR7 (setting [1]), on human TLR9 (setting [2]) and at human TLR8 (setting [3]) were 6670 nM, 1300 nM and 93.2 nM, respectively.
On the same counts, the results for `Cc1cc(-c2[nH]c3ccc(C4CCNCC4)cc3c2C(C)C)cc(F)n1` [Example 3, 2-(2-fluoro-6-methylpyridin-4-yl)-3-isopropyl-5-(piperidin-4-yl)-1H-indole] are 1.8 nM, 1890 nM and 3.8 nM.
`Cc1cc(-c2[nH]c3ccc(C4CCN(C5CCN(C(C)C)CC5)CC4)cc3c2C)c(C)cn1` [Example 814, 2-(2,5-dimethylpyridin-4-yl)-5-(1′-isopropyl-[1,4′-bipiperidin]-4-yl)-3-methyl-1H-indole]: the IC50 stood at 50.7 nM at human TLR7 (HEK-Blue cells, gardiquimod 7.5 μM); 101 nM on human TLR9 (read-out: TLR9 IC50, HEK-Blue cells, ODN2006 5 nM); 2.4 nM at human TLR8 (read-out: TLR8 IC50, HEK-Blue cells, R848 15.9 μM).
As to `Cc1cc(-c2[nH]c3ccc(C4CCN(Cc5ncco5)CC4)cc3c2C(C)C)c(C)cn1` [Example 699, 2-((4-(2-(2,5-dimethylpyridin-4-yl)-3-isopropyl-1H-indol-5-yl)piperidin-1-yl)methyl)oxazole], the IC50 on human TLR7 (setting [1]) was 38.7 nM; on human TLR9 (setting [2]), 40300 nM; at human TLR8 (setting [3]), 4.2 nM.
The corresponding values for `Cc1cc(-c2[nH]c3ccc(C4CCN(CC(C)O)CC4)cc3c2C(C)C)cc(C)n1` (stereo not drawn) [Example 331, 1-(4-(2-(2,6-dimethylpyridin-4-yl)-3-isopropyl-1H-indol-5-yl)piperidin-1-yl)propan-2-ol] are 2.4 nM, 566 nM and 3.5 nM.
As to `Cc1cc(-c2[nH]c3ccc(C4CCN(CC(=O)N5CC[C@H](O)C5)CC4)cc3c2C(C)C)cc(C)n1` [Example 273, (S)-2-(4-(2-(2,6-dimethylpyridin-4-yl)-3-isopropyl-1H-indol-5-yl)piperidin-1-yl)-1-(3-hydroxypyrrolidin-1-yl)ethan-1-one], the IC50 came to 1.5 nM against human TLR7 (setting [1]); 66 nM at human TLR9 (TLR9 IC50, HEK-Blue cells overexpressing human TLR9, ODN2006 5 nM); 5.4 nM against human TLR8 (TLR8 IC50, HEK-Blue cells overexpressing human TLR8, R848 15.9 μM).
As to `Cc1cc(-c2[nH]c3ccc(C4CCN(C5CCNCC5F)CC4)cc3c2C(C)C)ccn1` (stereo not drawn) [Example 705, 5-(3′-fluoro-[1,4′-bipiperidin]-4-yl)-3-isopropyl-2-(2-methylpyridin-4-yl)-1H-indole], the IC50 amounted to 21.9 nM on human TLR7 (setting [1]), 708 nM on human TLR9 (setting [2]) and 6.2 nM on human TLR8 (setting [3]).
Turning to `Cc1cc(-c2[nH]c3ccc(C4CCN(C(=O)CNC5CCCOC5)CC4)cc3c2C(C)C)cc(C)n1` (stereo not drawn) [Example 385, 1-(4-(2-(2,6-dimethylpyridin-4-yl)-3-isopropyl-1H-indol-5-yl)piperidin-1-yl)-2-((tetrahydro-2H-pyran-3-yl)amino)ethan-1-one], the IC50 amounted to 3.2 nM against human TLR7 (setting [1]), 539 nM on human TLR9 (setting [2]) and 22 nM at human TLR8 (setting [3]).

As a reminder, the IC50 is the concentration needed to halve the response being measured.

For the origin of these results see patent US10660877B2 (BRISTOL-MYERS SQUIBB COMPANY, priority 2016, dated 2020).
